Test results from US12391737B2, “Soluble NPY2 receptor agonists” (Boehringer Ingelheim International GmbH, priority 2020, dated 2025).
*1 amine or outer side, *2 acyl side, *3 side chain or, on linkers, in order; H or OH if unused. Where a SMILES comes first, the peptide text is derived from it. Side-chain parts run from the residue outwards. The star is where a group is joined. C18 diacid = O=C(O)CCCCCCCCCCCCCCCCC(=O)*; γGlu = O=C(O)[C@H](CCC(=O)[*:2])N[*:1]; Isovaleryl = CC(C)CC(=O)*; Ahx = NCCCCCC(=O)O

Columns and labels:
[1] = biological target: T1, Human Neuropeptide Y2 Receptor (Homo sapiens, UniProt P49146); assay: Radioligand binding competition assay (RLB); details: Table 3, 125I-PYY(1-36) competition; read-out: Ki
T1 construct: purchased CHEMICON HTS066M
T1 sequence (P49146 1-381): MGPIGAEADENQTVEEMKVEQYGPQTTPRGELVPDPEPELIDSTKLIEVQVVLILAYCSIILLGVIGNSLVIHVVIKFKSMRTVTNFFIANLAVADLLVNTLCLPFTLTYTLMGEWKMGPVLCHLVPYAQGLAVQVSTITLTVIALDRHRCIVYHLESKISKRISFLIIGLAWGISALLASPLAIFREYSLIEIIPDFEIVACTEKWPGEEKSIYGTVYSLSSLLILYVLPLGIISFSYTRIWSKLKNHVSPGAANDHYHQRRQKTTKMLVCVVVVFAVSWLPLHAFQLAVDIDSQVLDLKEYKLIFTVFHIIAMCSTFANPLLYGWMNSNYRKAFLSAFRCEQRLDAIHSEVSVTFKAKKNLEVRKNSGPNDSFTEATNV
In short: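 Filtration binding assay on human Y2 receptor membrane preparation, 0.5 μg protein per well, in 50 mM HEPES pH 7.4 containing 5 mM MgCl2, 1 mM CaCl2 and 0.2% ovalbumin. Plates shake 2 h at room temperature before harvest and scintillation counting.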

[2] = biological target: T2, human NPY1 receptor (hY1R) (Homo sapiens, UniProt P25929); assay: HTRF cAMP Gi assay, hY1R; assay type: cell-based; details: CHO-K1 cells
T2 construct: expressed in transfected cells; host or cells: CHO-K1
T2 sequence (P25929 1-384): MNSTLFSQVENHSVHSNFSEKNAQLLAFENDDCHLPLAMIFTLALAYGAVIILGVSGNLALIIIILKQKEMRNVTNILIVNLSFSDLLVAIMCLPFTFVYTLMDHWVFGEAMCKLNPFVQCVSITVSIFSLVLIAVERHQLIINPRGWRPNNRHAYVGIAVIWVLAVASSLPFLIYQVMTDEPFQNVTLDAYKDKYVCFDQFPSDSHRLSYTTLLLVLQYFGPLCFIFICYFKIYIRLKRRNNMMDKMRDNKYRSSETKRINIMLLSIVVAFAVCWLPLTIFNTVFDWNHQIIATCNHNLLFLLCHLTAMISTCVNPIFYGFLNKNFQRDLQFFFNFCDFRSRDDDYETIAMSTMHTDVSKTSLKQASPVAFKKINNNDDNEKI

[3] = biological target: T3, human NPY4 receptor (hY4R) (Homo sapiens, UniProt P50391); assay: HTRF cAMP Gi assay, hY4R; assay type: cell-based; details: CHO-K1 cells
T3 construct: expressed in transfected cells; host or cells: CHO-K1
T3 sequence (P50391 whole entry): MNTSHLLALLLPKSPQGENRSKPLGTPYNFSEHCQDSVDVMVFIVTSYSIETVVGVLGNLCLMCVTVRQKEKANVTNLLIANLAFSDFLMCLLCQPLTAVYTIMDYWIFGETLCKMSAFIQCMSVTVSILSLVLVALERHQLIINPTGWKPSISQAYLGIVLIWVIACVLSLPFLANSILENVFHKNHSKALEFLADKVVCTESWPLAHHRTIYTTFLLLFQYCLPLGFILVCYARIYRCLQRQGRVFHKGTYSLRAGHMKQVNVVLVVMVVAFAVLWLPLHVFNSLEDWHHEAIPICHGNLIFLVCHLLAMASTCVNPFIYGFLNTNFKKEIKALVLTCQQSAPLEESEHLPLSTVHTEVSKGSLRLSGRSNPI
Experimental: Briefly, the production of intracellular cAMP will generate a competition between unlabeled cAMP and exogenously added d2-cAMP for anti-cAMP antibodies conjugated to cryptate. CHO-K1 cells stably expressing the human NPY1, NPY2, NPY4 and NPY5 receptors were used with the cells brought to life from a frozen stock immediately before assay performance. 2000 cells per well were applied for all four NPY receptor subtype assays. A 384-well format was used applying a total volume of 20 μl using 5 μl cells, 2.5 μl peptide agonist, 2.5 μl forskolin and 5 μl of each of the fluorophores. […] Concentration-response evaluation of compounds was performed with 11 concentrations of agonist peptides (covering 3 decades). EC50 values were calculated by nonlinear regression using sigmoid concentration-response with variable slope.

Solubility determination = details: for Sol6: pH 6; for Sol7: pH 7
In short: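 Solubility is derived from the ratio of reversed-phase peak areas, filtered sample over a control dissolved at 1 mg/ml in 50% acetonitrile. Peptides are agitated for 2 hours at room temperature in 0.1 M sodium diphosphate at pH 6.4 or 7.0, aiming at 10 mg/ml.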

[4] = biological target: T4, human NPY5 receptor (hY5R) (Homo sapiens, UniProt Q15761); assay: HTRF cAMP Gi assay, hY5R
T4 sequence (Q15761 1-445): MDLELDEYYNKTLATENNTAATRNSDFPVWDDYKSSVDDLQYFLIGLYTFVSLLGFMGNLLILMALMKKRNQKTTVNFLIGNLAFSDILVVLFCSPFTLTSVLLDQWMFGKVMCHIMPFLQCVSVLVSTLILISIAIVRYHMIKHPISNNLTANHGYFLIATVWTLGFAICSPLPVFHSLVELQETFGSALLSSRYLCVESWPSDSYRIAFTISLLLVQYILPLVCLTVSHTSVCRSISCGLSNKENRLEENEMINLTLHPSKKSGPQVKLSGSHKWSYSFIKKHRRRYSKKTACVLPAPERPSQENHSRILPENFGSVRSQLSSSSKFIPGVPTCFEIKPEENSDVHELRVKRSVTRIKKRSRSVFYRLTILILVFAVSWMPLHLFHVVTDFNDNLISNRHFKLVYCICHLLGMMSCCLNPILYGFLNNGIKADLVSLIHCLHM

Ki [1] [µM] | EC50 [2] [µM] | EC50 [3] [µM] | Sol6 (Solubility determination) [mg/mL] | Sol7 (Solubility determination) [mg/mL] | EC50 [4] [µM] | Structure (SMILES)
0.00342 | > 5 | > 5 | 8.9 | 9.1 | > 5 | CC[C@H](C)[C@H](NC(=O)[C@H](CCC(=O)O)NC(=O)[C@H](CCC(=O)O)NC(=O)[C@@H]1CCCN1C(=O)[C@H](CO)NC(=O)[C@H](C)NC(=O)[C@H](CCC(=O)O)NC(=O)[C@H](CCC(=O)O)NC(=O)[C@H](CCC(=O)O)NC(=O)[C@@H]1CCCN1C(=O)[C@H](CCCCNC(=O)CCCCCNC(=O)CC[C@H](NC(=O)CCCCCCCCCCCCCCCCC(=O)O)C(=O)O)NC(=O)[C@H](CCC(=O)O)NC(=O)[C@@H]1CCCN1C(=O)[C@H](C)NC(=O)CC(C)C)C(=O)N[C@@H](CCC(N)=O)C(=O)N[C@@H](CCCNC(=N)N)C(=O)N[C@@H](Cc1ccc(O)cc1)C(=O)N[C@@H](Cc1ccc(O)cc1)C(=O)N[C@H](C(=O)N[C@@H](CO)C(=O)N[C@@H](CC(C)C)C(=O)N[C@@H](CCCNC(=N)N)C(=O)N[C@@H](Cc1c[nH]cn1)C(=O)N[C@@H](Cc1ccc(O)cc1)C(=O)N[C@@H](Cc1ccc(O)cc1)C(=O)N[C@@H](CC(N)=O)C(=O)N[C@@H](Cc1c[nH]c2ccccc12)C(=O)N[C@@H](CC(C)C)C(=O)N[C@H](C(=O)N[C@@H](CCCNC(=N)N)C(=O)N[C@@H](CCC(N)=O)C(=O)N[C@@H](CCCNC(=N)N)C(=O)N[C@@H](Cc1ccc(O)cc1)C(N)=O)[C@@H](C)O)C(C)C [Compound 193, N{alpha-4}-(3-methylbutanoyl)-N{epsilon-7}-(6-[(4S)-4-carboxy-4-(17-carboxyheptadecanamido)butanamido]hexanoyl)-[4A,7K,9E,11E,17I,18Q,22V,28Y,30W,31L]-hPYY(4-36)]
0.00291 | > 5 | > 5 | 10.0 | >10.0 | > 5 | CC(C)CC(=O)N[C@@H](C)C(=O)N1CCC[C@H]1C(=O)N[C@@H](CCC(=O)O)C(=O)N[C@@H](CCCCNC(=O)CCCCCNC(=O)CC[C@H](NC(=O)CCCCCCCCCCCCCCCCC(=O)O)C(=O)O)C(=O)N1CCC[C@H]1C(=O)N[C@@H](CCC(=O)O)C(=O)N[C@@H](CCC(=O)O)C(=O)N[C@@H](C)C(=O)N[C@@H](C)C(=O)N[C@H](C(=O)N1CCC[C@H]1C(=O)N[C@@H](CCC(=O)O)C(=O)N[C@@H](CCC(=O)O)C(=O)N[C@@H](CC(C)C)C(=O)N[C@@H](CCC(N)=O)C(=O)N[C@@H](CCCNC(=N)N)C(=O)N[C@@H](Cc1ccc(O)cc1)C(=O)N[C@@H](Cc1ccc(O)cc1)C(=O)N[C@H](C(=O)N[C@@H](CO)C(=O)N[C@@H](CC(C)C)C(=O)N[C@@H](CCCNC(=N)N)C(=O)N[C@@H](Cc1c[nH]cn1)C(=O)N[C@@H](Cc1ccc(O)cc1)C(=O)N[C@@H](Cc1ccc(O)cc1)C(=O)N[C@@H](CC(N)=O)C(=O)N[C@@H](Cc1c[nH]c2ccccc12)C(=O)N[C@@H](CC(C)C)C(=O)N[C@H](C(=O)N[C@@H](CCCNC(=N)N)C(=O)N[C@@H](CCC(N)=O)C(=O)N[C@@H](CCCNC(=N)N)C(=O)N[C@@H](Cc1ccc(O)cc1)C(N)=O)[C@@H](C)O)C(C)C)[C@@H](C)O [Compound 128, N{alpha-4}-(3-methylbutanoyl)-N{epsilon-7}-(6-[(4S)-4-carboxy-4-(17-carboxyheptadecanamido)butanamido]hexanoyl)-[4A,7K,9E,11A,13T,18Q,22V,28Y,30W,31L]-hPYY(4-36)]
0.00095 | > 5 | > 5 | 8.5 | 9.2 | > 5 | CC[C@H](C)[C@H](NC(=O)[C@H](CCC(=O)O)NC(=O)[C@H](CCC(=O)O)NC(=O)[C@@H]1CCCN1C(=O)[C@@H](NC(=O)[C@H](C)NC(=O)[C@H](CC(=O)O)NC(=O)[C@H](CCC(=O)O)NC(=O)[C@H](CCC(=O)O)NC(=O)[C@@H]1CCCN1C(=O)[C@H](CCCCNC(=O)CCCCCNC(=O)CC[C@H](NC(=O)CCCCCCCCCCCCCCCCC(=O)O)C(=O)O)NC(=O)[C@H](C)NC(=O)[C@@H]1CCCN1C(=O)[C@H](C)NC(=O)CC(C)C)[C@@H](C)O)C(=O)N[C@@H](CCC(N)=O)C(=O)N[C@@H](CCCNC(=N)N)C(=O)N[C@@H](Cc1ccc(O)cc1)C(=O)N[C@@H](Cc1ccc(O)cc1)C(=O)N[C@H](C(=O)N[C@@H](CO)C(=O)N[C@@H](CC(C)C)C(=O)N[C@@H](CCCNC(=N)N)C(=O)N[C@@H](Cc1c[nH]cn1)C(=O)N[C@@H](Cc1ccc(O)cc1)C(=O)N[C@@H](Cc1ccc(O)cc1)C(=O)N[C@@H](CC(N)=O)C(=O)N[C@@H](Cc1c[nH]c2ccccc12)C(=O)N[C@@H](CC(C)C)C(=O)N[C@H](C(=O)N[C@@H](CCCNC(=N)N)C(=O)N[C@@H](CCC(N)=O)C(=O)N[C@@H](CCCNC(=N)N)C(=O)N[C@@H](Cc1ccc(O)cc1)C(N)=O)[C@@H](C)O)C(C)C [Compound 114, N{alpha-4}-(3-methylbutanoyl)-N{epsilon-7}-(6-[(4S)-4-carboxy-4-(17-carboxyheptadecanamido)butanamido]hexanoyl)-[4A,6A,7K,9E,13T,17I,18Q,22V,28Y,30W,31L]-hPYY(4-36)]
0.0014 | > 5 | > 5 | 8.9 | 8.7 | > 5 | CC[C@H](C)[C@H](NC(=O)[C@H](Cc1ccc(O)cc1)NC(=O)[C@H](Cc1ccc(O)cc1)NC(=O)[C@H](CCCNC(=N)N)NC(=O)[C@H](CCC(N)=O)NC(=O)[C@@H](NC(=O)[C@H](CCC(=O)O)NC(=O)[C@H](CCC(=O)O)NC(=O)[C@@H]1CCCN1C(=O)[C@H](CO)NC(=O)[C@H](C)NC(=O)[C@H](CC(=O)O)NC(=O)[C@H](C)NC(=O)[C@H](CCC(=O)O)NC(=O)[C@@H]1CCCN1C(=O)[C@H](CCCCNC(=O)CCCCCNC(=O)CC[C@H](NC(=O)CCCCCCCCCCCCCCCCC(=O)O)C(=O)O)NC(=O)[C@H](CCC(=O)O)NC(=O)[C@@H]1CCCN1C(=O)[C@H](C)NC(=O)CC(C)C)[C@@H](C)CC)C(=O)N[C@@H](CO)C(=O)N[C@@H](CC(C)C)C(=O)N[C@@H](CCCNC(=N)N)C(=O)N[C@@H](Cc1c[nH]cn1)C(=O)N[C@@H](Cc1ccc(O)cc1)C(=O)N[C@@H](Cc1ccc(O)cc1)C(=O)N[C@@H](CC(N)=O)C(=O)N[C@@H](Cc1c[nH]c2ccccc12)C(=O)N[C@@H](CC(C)C)C(=O)N[C@H](C(=O)N[C@@H](CCCNC(=N)N)C(=O)N[C@@H](CCC(N)=O)C(=O)N[C@@H](CCCNC(=N)N)C(=O)N[C@@H](Cc1ccc(O)cc1)C(N)=O)[C@@H](C)O [Compound 11, N{alpha-4}-(3-methylbutanoyl)-N{epsilon-7}-(6-[(4S)-4-carboxy-4-(17-carboxyheptadecanamido)butanamido]hexanoyl)[4A,7K,9E,10A,17I,18Q,22I,28Y,30W,31L]-hPYY(4-36)] (Isovaleryl-APEK([Ahx-γGlu-C18 diacid])PEADASPEEIQRYYISLRHYYNWLTRQRY-NH2)
